Key:
[1] = system: splenocytes; assay: Secreted cytokines of splenocytes in Morquio A mouse models and WT mice treated by ERT (Examples 10-13); type: cell-based; conditions: for IL-4 secretion / IL-5 secretion: MTol mice
Description: (§1) Morquio A mouse models: a). […] 14(22): p. 3321-35).c). Missense mutation mice (Galnstm (C76S) SLU C2) (Tomatsu et al. (2007) Mol Genet Metab., 91(3): p. 251-8), and wild-type C57BL6 mice were treated by ERT. […] A control group received PBS.
(§2) The suspension was centrifuged at 1,000 rpm during 10 minutes.
(§3) Cytokines were determined in the cell culture supernatants. […] Cells were centrifuged at 1000 rpm during 10 min. Secreted cytokines (IL-4, IL-5, IL-13, and IFN-γ) in the collected supernatants were detected by a bead immunoassay kit which allow the measurement of multiple proteins simultaneously (LUMINEX xMAP Technology, using a Millipore Milliplex™ kit) according to manufacturer's instructions.

[2] = system: splenocytes; assay: Secreted cytokine profile of splenocytes, retest in MKC mice (Example 7); type: cell-based, mouse; conditions: for IL-5 secretion, ERT treated vs PBS controls, p or significance / IL-13 secretion, ERT treated vs PBS controls, p or significance / profile of secreted cytokines, ERT treated vs PBS treated mice: MKC mice; for profile of secreted cytokines, ERT treated vs PBS treated mice: 16 i.v. infusions
Description: The predicted peptides from Example 1 were reevaluated in MKC mice to reaffirm the selection of peptides 4, 8, and 10. […] A control group received PBS. […] The suspension was centrifuged at 1,000 rpm during 10 minutes. […] The specificity of cellular response against the peptides or the complete enzyme in the in vitro stimulation was determined by splenocyte proliferation or cytokine secretion in ERT treated mice or PBS injected control mice.
as §3, with “1,000” for “1000”, “instructions (FIG. 5).” for “instructions.”

[3] = system: splenocytes; assay: Cytokine production by splenocytes after in vitro stimulation (Example 3); type: cell-based, mouse; conditions: splenocytes of MKC mice treated by ERT with GALNS; culture supernatant
Description: (§4) Mice (MKC) genetically engineered not to express GALNS were used in these examples. […] 200 μl of the emulsion were administered as a subcutaneous injection. […] Control mice (n=2) were immunized with PBS emulsified in CFA and IFA respectively (Chung et al. (2005) J. Leukoc Biol. 77(6):906-13)). […] A control group (n=5) received PBS (Tomatsu et al. (2008) Hum Mol Genet. 15; 17(6):815-24). […]
The production of cytokines after peptide stimulation was evaluated as intracellular staining (by flow cytometry) and secreted cytokines (by LUMINEX). […] The cells were treated with 1 μl of a protein transport inhibitor BD GolgiPlug™ during 5 h at 37° C., saturated humidity and 5% CO2. The suspension of cells was centrifuged at 1000 rpm during 10 minutes. The supernatants were collected by further analysis with LUMINEX. The Fc receptors were blocked with 1 μl of α-mouse CD16/32 (e-Bioscience) during 15 min at 4° C. After washing, the cells were stained with PE-Cy7-labeled anti-mouse CD4 and Alexa700-labeled anti-mouse CD8 antibodies during 30 min at 4° C. After two washes, cells were permeabilized with a BD fixation/permeabilization solution during 20 min at 4° C. Cells were washed two times and stained with a cocktail of antibodies for intracellular staining (PE-labeled anti-mouse IL-4, APC-labeled anti-mouse IL-5 and FITC-labeled anti-mouse IFN-γ). After two washes, cells were analyzed by flow cytometry. Secreted cytokines (IL-4, IL-5, IL-13, IL-17 and IFN-γ) in the collected supernatants were detected by using a bead immunoassay kit which allows the measurement of multiple proteins simultaneously (LUMINEX technology, using a Millipore Milliplex™ kit).

[4] = system: splenocytes; assay: Splenocytes proliferation in Morquio A mouse models and WT mice treated by ERT (Example 9); type: cell-based
Description: as §1, §2
Thymidine incorporation was measured by β-Scintillation counter (Trilux Microbeta Counter) Mirano-Bascos, et al. (2010) J Virol. 84(7): p. 3303-11).

[5] = system: splenocytes; assay: Splenocyte proliferation after in vitro stimulation with peptides or GALNS (Examples 2, 4); type: cell-based, mouse; conditions: for proliferation of splenocytes relative to age of the animal and length of treatment: MKC mice, weeks of infusion; for splenocyte proliferation response: splenocytes of MKC mice treated by ERT with GALNS, in vitro peptide stimulation
Description: as §4
Ten days after the last immunization or the last infusion, the mice were euthanized and the spleen was aseptically removed. […] The suspension was centrifuged at 1000 rpm […]. The red blood cells were lysed using a hypotonic lysis buffer (Sigma® R7757). […] Cells were pulsed with 1 JpCi of [3H]thymidine for the last 18 h of incubation. [3H]thymidine incorporation was measured by […] (Trilux Microbeta Counter). The Stimulation Index (SI) was calculated as the mean value of the three wells for each condition divided by the mean value of the unstimulated cells (Mirano-Bascos (2010) J Virol. 84(7):3303-11).

[6] = system: splenocytes; assay: Screening of peptides by splenocytes proliferation, retest in MKC mice (Examples 5-6); type: cell-based, mouse; conditions: MKC mice, 16, 22 and 24 infusions; with higher number of infusions
Description: of body weight through the tail vein. A control group received PBS. […] The suspension was centrifuged at 1,000 rpm during 10 minutes. […] The specificity of cellular response against the peptides or the complete enzyme in the in vitro stimulation was determined by splenocyte proliferation or cytokine secretion in ERT treated mice or PBS injected control mice. […] 3H-Thymidine incorporation was measured by β-Scintillation counter (Trilux Microbeta Counter). Proliferation data are expressed as counts per minute (cpm) values (FIG. 5). (Mirano-Bascos et al. (2010) J Virol. 84(7): p. 3303-11).

| Sequence | IFN-γ secretion, MKC vs MTol mice treated by ERT, p or significance [1] | IL-4 secretion [1] | IL-5 secretion [1] | IFN-γ secretion, ERT treated vs PBS controls of the same strain ([1]; all mice (MKC, C2, WT, MTol)) | IL-5 secretion, ERT treated vs PBS controls ([1]; any of the mice models) | IL-5 secretion, ERT treated vs PBS controls, p or significance [2] | IL-13 secretion, ERT treated vs PBS controls, p or significance [2] | profile of secreted cytokines, ERT treated vs PBS treated mice [2] | secretion of cytokines IL-5 and IFN-γ [3] | splenocytes proliferation, ERT treated vs PBS controls ([4]; C2 mice) | splenocytes proliferation, ERT treated vs PBS controls ([4]; MKC mice) | splenocytes proliferation, ERT treated vs PBS controls ([4]; WT mice) | proliferation of splenocytes relative to age of the animal and length of treatment [5] | splenocyte proliferation response [5] | relationship between number of weekly i.v. infusions and cpm values of splenocytes proliferation [6] | IFN-γ secretion compared with the other stimuli ([1]; mice treated by ERT) | levels of secreted IFN-γ among the peptides and GALNS ([2]; MKC mice treated by ERT) |
| --- | --- | --- | --- | --- | --- | --- | --- | --- | --- | --- | --- | --- | --- | --- | --- | --- | --- |
| FFLYWAVDATHAPVYASKPF (listed as Homo sapiens) [Peptide E8] | not statistically significant | did not present secretion of IL-4 | did not present secretion of IL-5 | statistically significant levels | did not induce IL-5 secretion | did not induce a significant IL-5 response | not statistically significant | statistically significant difference | strong response | statistically significant difference | statistically significant | statistically significant difference | highest response at 16 weeks | strong response | lower levels of proliferation | – | – |
| PNCHFGPYDNKARPNIPVYR (listed as Homo sapiens) [Peptide C4] | – | did not present secretion of IL-4 | did not present secretion of IL-5 | – | – | 0.028 | not statistically significant | statistically significant difference | strong response | statistically significant difference | statistically significant | statistically significant difference | highest response at 16 weeks | strong response | lower levels of proliferation | strongest response | highest levels |
